Source: PMC4579271, “Inflammatory Signaling by NOD-RIPK2 Is Inhibited by Clinically Relevant Type II Kinase Inhibitors” (Chemistry & Biology, 2015)
Like-named read-outs stand apart in the source and are kept apart here.

Legend:
[1] = tested on: NF-κB activation in HEKBlue cells expressing NOD2; experiment: HEKBlue NF-κB-SEAP reporter activation assay, L18-MDP stimulation; conditions: for EC50: Homo sapiens, HEK-Blue, 8 h, read-out: NFκB activity EC50; for inhibition of NOD2 (MDP) response in HEKBlue cells: Figure S5B
[2] = tested on: phospho-Ser176-RIPK2 (p-RIPK2) in NOD2-expressing HEK293 cells; experiment: Western blot of phospho-Ser176-RIPK2 in HEKBlue cells after L18-MDP
[3] = tested on: RIPK2 ubiquitination in THP-1 cells; experiment: TUBE purification of ubiquitin conjugates, L18-MDP-stimulated THP-1 cells; conditions: 100 nM pre-treatment, 200 ng/ml L18-MDP
[4] = tested on: NOD2-dependent TNF production in primary human monocytes; experiment: Flow cytometry of intracellular TNF in primary human monocytes, L18-MDP; format: cell-based; conditions: 200 ng/ml L18-MDP
Description: Experimental conditions are measured in 4–5 healthy donors. […] Gray background indicates range without inhibitors. See also Figure S7.

RIPK2 [5] = target: RIPK2 (Homo sapiens, UniProt O43353); experiment: ADPGlo in vitro kinase assay; format: biochemical; conditions: Figure S5A
Description: (§1) For ADPGlo (Promega) assays, 1 ng of Abl or 10 ng of RIPK2 was diluted in reaction buffer (40 mM Tris-HCl [pH 7.5], 20 mM MgCl2, 0.5 mM DTT, and 0.01% BSA) supplemented with 50 μM ATP and a 10-point dose range of inhibitors. Detailed information is provided in the Supplemental Experimental Procedures.
(§2) 40C centrifuge at 14,000 rpm for 15 min to collect lysates. Protein concentrations were […]
(§3) Equal amounts of proteins were separated using 8-10% SDS-PAGE, followed by overnight incubations with antibodies according to the manuf acturer’s recommendations.
(§4) AD P G l o in vitro kinase assays
(§5) For ADPGlo (Promega) assays, 1 ng Abl or 10 ng of RIPK2 was diluted in reaction buff er (40 mM Tris-HCl pH 7.5, 20 mM MgCl2, 0.5 m M DTT, 0.01% BSA) supplemented with 50 µM ATP and 10-point dose range of inhibitors. Reactions were performed at room temperature for 1 hour. Reactions were performed in 5 µL total volume (5% final concentration of DMSO) and stopped by addition of 5 µL of ADPGlo reagent for 40 min at room temperature. Luminescent signal was generated by addition of 10 µL of kinase detection reagent for 30 minutes at room temperature and determined using Victor3V platereader (Perkin Elmer). Specific signal was calculated by subtracting values in the wells without protein and inhibitor from the values in the test wells. Inhibition, % = ((specif ic signal (DMSO control) - specif ic signal (inhibitor))/ (specif ic signal (DMSO control))) x 100%. Non-linear regression to determine IC50 values was perf ormed using Prism software (GraphPad). qPCR analysis in RAW 264.7 cells
(§6) RAW cells were seeded at 2X105 cells/well in 12 well plates. Af ter 24 hours, cells were treated with inhibitors and stimulated with 10 µg/mL MDP f or 24 hours. Total RNAs were isolated using […]

[6] = target: human RIPK2 recombinant kinase domain (Homo sapiens, UniProt O43353, R171C); experiment: Fluorescence-based thermal shift assay; conditions: for ΔTm at 10 µM: read-out: thermal shift (ΔTm); for thermal shift (ΔTm): RIPK2 2 μM, inhibitor 10 μM
Abl = Abl (Homo sapiens, UniProt P00519); experiment: ADPGlo in vitro kinase assay; format: biochemical; conditions: Figure S5A
Description: as §1, §2, §3, §4, §5, §6

[7] = tested on: LPS pathway in THP-1 cells; experiment: Flow cytometry of TNF production in THP-1 cells, LPS; format: cell-based, human; conditions: 10 μM
Description: Figure S7, Related to Figure 7. Inhibition of NOD2 signaling in the human monocytic cell
line THP-1. Representative FACS blots (A) and quantif ication of TNF production (B) in THP-1
cells stimulated with L18-MDP or LPS. In indicated conditions cells were preincubated with
k inase inhibitors for 1 hour before activation of NOD2 and TLR4 receptor for 2.5 hours.
(1 picture or pasted object on this page, not shown here)

RIPK2 [8] = conditions: ref Vogt et al., 2011; cited from earlier work

Sequence of human RIPK2 recombinant kinase domain (O43353 8-317 R171C): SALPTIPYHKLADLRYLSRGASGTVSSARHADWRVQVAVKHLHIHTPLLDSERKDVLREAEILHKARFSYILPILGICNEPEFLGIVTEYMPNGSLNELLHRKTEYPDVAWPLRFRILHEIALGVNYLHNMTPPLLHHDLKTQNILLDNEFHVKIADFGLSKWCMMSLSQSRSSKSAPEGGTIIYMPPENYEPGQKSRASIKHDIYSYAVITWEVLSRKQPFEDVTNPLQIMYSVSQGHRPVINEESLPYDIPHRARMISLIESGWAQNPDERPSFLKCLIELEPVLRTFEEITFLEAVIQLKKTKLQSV
Sequence of RIPK2 (Homo sapiens, UniProt O43353) (O43353 18-294 limits assumed): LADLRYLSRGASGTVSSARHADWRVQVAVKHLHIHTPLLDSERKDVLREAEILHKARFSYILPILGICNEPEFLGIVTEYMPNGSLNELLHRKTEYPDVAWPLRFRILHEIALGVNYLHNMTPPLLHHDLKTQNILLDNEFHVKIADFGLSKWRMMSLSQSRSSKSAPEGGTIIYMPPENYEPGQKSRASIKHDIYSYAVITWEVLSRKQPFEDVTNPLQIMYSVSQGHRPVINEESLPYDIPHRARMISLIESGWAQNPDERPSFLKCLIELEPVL
Sequence of Abl (P00519 whole entry, species assumed): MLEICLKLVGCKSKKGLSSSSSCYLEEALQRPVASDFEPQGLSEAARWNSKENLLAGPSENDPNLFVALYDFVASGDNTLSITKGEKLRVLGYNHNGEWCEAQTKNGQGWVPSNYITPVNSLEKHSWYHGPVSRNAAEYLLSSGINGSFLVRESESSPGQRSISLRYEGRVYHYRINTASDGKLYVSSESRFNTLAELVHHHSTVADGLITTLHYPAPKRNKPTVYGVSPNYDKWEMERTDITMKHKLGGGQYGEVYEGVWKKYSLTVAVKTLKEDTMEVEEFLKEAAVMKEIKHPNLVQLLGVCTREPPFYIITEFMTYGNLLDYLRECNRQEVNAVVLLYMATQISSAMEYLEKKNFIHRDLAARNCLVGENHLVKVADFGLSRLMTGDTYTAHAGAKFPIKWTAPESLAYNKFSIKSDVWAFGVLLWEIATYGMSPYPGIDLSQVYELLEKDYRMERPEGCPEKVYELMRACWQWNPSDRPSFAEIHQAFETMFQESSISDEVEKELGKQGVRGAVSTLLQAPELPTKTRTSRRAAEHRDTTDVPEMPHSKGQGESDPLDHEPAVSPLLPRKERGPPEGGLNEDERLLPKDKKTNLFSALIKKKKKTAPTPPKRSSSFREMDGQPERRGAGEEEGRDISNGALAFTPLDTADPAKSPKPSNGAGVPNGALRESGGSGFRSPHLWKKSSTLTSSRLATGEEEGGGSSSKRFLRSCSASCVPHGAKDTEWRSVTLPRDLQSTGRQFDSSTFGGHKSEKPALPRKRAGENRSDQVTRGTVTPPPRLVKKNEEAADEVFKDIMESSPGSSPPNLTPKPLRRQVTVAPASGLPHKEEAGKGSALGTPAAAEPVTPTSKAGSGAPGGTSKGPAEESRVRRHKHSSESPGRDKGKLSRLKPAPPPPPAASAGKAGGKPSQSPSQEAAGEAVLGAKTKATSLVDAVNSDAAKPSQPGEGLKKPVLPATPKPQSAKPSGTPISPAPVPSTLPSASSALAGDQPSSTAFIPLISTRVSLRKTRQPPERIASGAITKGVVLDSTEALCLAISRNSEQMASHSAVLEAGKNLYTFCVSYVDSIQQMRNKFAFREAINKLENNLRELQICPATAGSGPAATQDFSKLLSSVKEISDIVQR

Q: With CNC(=O)c1cc(Oc2ccc(NC(=O)Nc3ccc(Cl)c(C(F)(F)F)c3)cc2)ccn1 [sorafenib] as the molecule, how does the EC50 [1] read?
A: 16.9 nM

Q: And the “inhibition of L18-MDP-induced p-RIPK2” value [2]?
A: inhibited by low nanomolar concentrations

Q: What does the source list for CNC(=O)c1cc(Oc2ccc(NC(=O)Nc3ccc(Cl)c(C(F)(F)F)c3)c(F)c2)ccn1 [regorafenib]?
A: L18-MDP-induced RIPK2 ubiquitination [3]: less robust inhibitory effects; EC50 [1]: 3.8 nM; inhibition of L18-MDP-induced p-RIPK2 ([2]; 1 μg/ml L18-MDP, 30 min): inhibited by low nanomolar concentrations; concentration completely abrogating NOD2-dependent TNF production [4]: 100 nM

Q: With Cc1cn(-c2cc(NC(=O)c3ccc(C)c(Nc4nccc(-c5cccnc5)n4)c3)cc(C(F)(F)F)c2)cn1 [nilotinib] as the molecule, how does the “inhibition of NOD2 (MDP) response in HEKBlue cells” value [1] read?
A: did not inhibit

Q: What about the “inhibition of RIPK2 in vitro” value (RIPK2 [5]) of the same molecule?
A: did not inhibit

Q: For Cc1nc(Nc2ncc(C(=O)Nc3c(C)cccc3Cl)s2)cc(N2CCN(CCO)CC2)n1 [Dasatinib], which ΔTm at 10 µM [6] is on record?
A: 9.5 °C

Q: For Cc1cccc(-c2nn(C(=S)Nc3ccccc3)cc2-c2ccnc3ccccc23)n1 [TGFβ inhibitor IV (A-83-01)], which “thermal shift (ΔTm)” value [6] is on record?
A: 8.4 °C

Q: For CN1CCN(Cc2ccc(NC(=O)c3ccc(C(C)(C)C)c(C#Cc4cnc5cccnn45)c3)cc2C(F)(F)F)CC1 [CS6], which “inhibition of NOD2 (MDP) response in HEKBlue cells” value [1] is on record?
A: did not inhibit

Q: And the “inhibition of Abl kinase activity” value (Abl)?
A: loss of inhibition

Q: And the “inhibition of RIPK2 in vitro” value (RIPK2 [5])?
A: loss of inhibition

Q: With CN1CCC(Nc2ncc3ncnc(Nc4ccc(F)c(Cl)c4)c3n2)CC1 [BIBX1382] as the molecule, how does the ΔTm at 10 µM [6] read?
A: 8.7 °C

Q: Which “L18-MDP-induced RIPK2 ubiquitination” value [3] does the source give for COc1cc2ncnc(Nc3ccc(F)c(Cl)c3)c2cc1OCCCN1CCOCC1 [gefitinib] here?
A: less robust inhibitory effects

Q: What about the “LPS pathway TNF production” value [7] of the same molecule?
A: also inhibited the LPS pathway

Q: Which results are given for c1ccc2c(-c3cnn4cc(-c5ccc(N6CCNCC6)cc5)cnc34)ccnc2c1 [LDN-193189]?
A: thermal shift (ΔTm) [6]: 12.1 °C; IC50 (RIPK2 [8]): 25 nM

Q: Which ΔTm at 10 µM [6] does the source give for CN[C@@H]1C[C@H]2O[C@@](C)([C@@H]1OC)n1c3ccccc3c3c4c(c5c6ccccc6n2c5c31)C(=O)NC4 [Staurosporine] here?
A: 9.1 °C

Q: Which ΔTm at 10 µM [6] does the source give for c1cc(-c2cnn3cc(-c4ccc(OCCN5CCCCC5)cc4)cnc23)ccn1 [Dorsomorphin] here?
A: 9.6 °C

Q: With COC(=O)[C@@]1(O)C[C@H]2O[C@]1(C)n1c3ccccc3c3c4c(c5c6ccccc6n2c5c31)C(=O)NC4 [K252a] as the molecule, how does the “thermal shift (ΔTm)” value [6] read?
A: 10.0 °C
